Measurements reported in patent publication US11911387B2, “Vasoprotective and cardioprotective antidiabetic therapy” (Boehringer Ingelheim International GmbH, priority 2010, dated 2024).

Experiments:
diabetic eNOS ko mice = assay: Diabetic nephropathy in STZ-diabetic eNOS ko mice, 4 weeks treatment; assay type: in vivo; settings: STZ treated animals, linagliptin 3 mg/kg, telmisartan 1 mg/kg p.o.
From the text: Endothelial damage is characteristic for type 2 diabetes and contributes to the development of end stage kidney disease. Further, vascular endothelial NO synthase (eNOS) activity is altered in T2D and genetic abnormalities in the respected gene (NOS3) are associated with the development of advanced diabetic nephropathy (DN) in patients with type 1 and type 2 diabetes. The use of low dose STZ to induce T2D in this genetic phenotype (eNOS−/−) has been recently reported (Brosius et al, JASN 2009) to be a valid experimental model for DN. Eight week old eNOS −/− mice are rendered diabetic with intraperitoneal injections of streptozotocin (100 mg/kg per day for two consecutive days). Development of diabetes (defined by blood glucose>250 mg/dl) is verified one week after streptozotocin injection. No insulin is given because that could prevent the development of diabetic nephropathy. Mice are treated for 4 weeks with:
1) Non-diabetic eNOS ko control mice, placebo (natrosol) (n=14)
2) sham treated diabetic eNOS ko mice, placebo (natrosol) (n=17)
3) Telmisartan (p.o. 1 mg/kg) treated diabetic eNOS ko mice (n=17)
Renal function (s-creatinine, albuminuria) and blood glucose level are detected.

2K1C-rats = assay: Two-kidney-one clip reno-vascular hypertension (2K1C) rat model, systolic blood pressure; assay type: in vivo; settings: 3 months; telmisartan 10 mg/kg, linagliptin 89 ppm in chow
From the text: We hypothesize that glucose/energy supply is particularly important in the failing heart that is characterized by cardiac hypertrophy. Inadequate energy supply is considered as one of the most important steps from compensated to decompensated left ventricular hypertrophy resulting in heart failure. A classical model of hypertension induced left ventricular hypertrophy that results on the long run in left ventricular failure and pathological remodeling is the two-kidney-one clip reno-vascular hypertension (Goldblatt) model (2K1C model).
[…]. Non-invasive, systolic blood pressure is measured in all groups to the time points (1. before treatment; 2. after 1 weeks 3. after 4 weeks; 4. after 6 weeks 5. after 12 weeks; and 6. after 6 weeks of treatment with the respective compounds.

[1] = system: diabetic eNOS knockout C57BL/6J mice; assay: ARB-resistant diabetic nephropathy in diabetic eNOS knockout C57BL/6J mice, 12 weeks; assay type: in vivo
From the text: Fourteen mice are used as non-diabetic controls. After 12 weeks, urine and blood are obtained and blood pressure measured.

[2] = system: isolated aortic ring segments; assay: Direct vasodilatory effects, isometric tension recording in isolated aortic ring segments; design: species or system rats; settings: cumulative concentrations 1 nM to 32 or 100 μM; versus DMSO
Description: FIGS. 9A and 9B show direct vasodilatory effects of gliptins. […] The data are mean±SEM of 12 (FIG. 9A) or 4 (FIG. 9B) aortic rings from 10 rats in total: p<0.05 vs. DMSO (solvent control); ^#p<0.05 vs. sita-/vildagliptin, and ^§, p<0.05 vs. saxa-/alogliptin.
Direct vasodilatory effects of gliptins are measured by the isometric tension technique in isolated aortic ring segments. […] In addition reactive oxygen and nitrogen species (RONS) formation is determined in isolated cardiac mitochondria and LPS or PDBu-triggered oxidative burst in whole blood.

[3] = system: T2DM patients on stable metformin
From the text: Efficacy analyses are based on HbA1c change from baseline in the full analysis set (FAS) and per-protocol (PP) population. Safety evaluations includ pre-specified, prospective, and adjudicated capture of cardiovascular (CV) events (CV death, non-fatal myocardial infarction or stroke, unstable angina with hospitalization).

[4] = system: superoxide formation from xanthine oxidase; assay: Direct antioxidant effect: superoxide formation from xanthine oxidase

Compound: CCCc1nc2c(C)cc(-c3nc4ccccc4n3C)cc2n1Cc1ccc(-c2ccccc2C(=O)O)cc1 [telmisartan]
- blood sugar versus placebo (diabetic eNOS ko mice): No significant differences
- systolic blood pressure (RR systolic) (2K1C-rats): always significant versus vehicle treated animals
- albuminuria, significance compared with diabetic controls ([1]; 12 weeks): not statistically significant
- blood pressure ([1]; 12 weeks, mean±SEM): 111.2±2.3 mmHg
- blood pressure reduction vs diabetic controls ([1]; 12 weeks, p=0.071): 5.9 mmHg
- albuminuria (urinary albumin excretion per 24 h) ([1]; 12 weeks, telmisartan 1 mg/kg, linagliptin 3 mg/kg): 97.8±26.4 μg/24 h
- glomerulosclerosis in the kidney, histological score ([1]; compared with diabetic controls, p<0.05): not significantly different
- plasma neutrophil gelatinase-associated lipocalin (NGAL) levels ([1]; compared with untreated diabetic mice): significantly increased

Compound: N[C@@H](CC(=O)N1CCn2c(nnc2C(F)(F)F)C1)Cc1cc(F)c(F)cc1F [sitagliptin]
- direct vasodilatory effect (induction of vasodilation), ranking [2]: not more efficient in the induction of vasodilation than the solvent alone control

Compound: Cn1c(=O)cc(N2CCC[C@@H](N)C2)n(Cc2ccccc2C#N)c1=O [alogliptin]
- direct vasodilatory effect (induction of vasodilation), ranking [2]: directly followed by alogliptin and vildagliptin

Compound: CCC1=C(C)CN(C(=O)NCCc2ccc(S(=O)(=O)NC(=O)N[C@H]3CC[C@H](C)CC3)cc2)C1=O [glimepiride, reference compound]
- adjusted mean HbA1c change from baseline ([3]; PP population, 2 years, linagliptin 5 mg/day, glimepiride mean dose 3 mg/day, added to metformin): −0.5%
- patients with investigator-defined, drug-related hypoglycemia ([3]; human, in vivo, 2 years): 36.1%
- body weight change ([3]; in vivo): +1.3 kg

Compound: N#C[C@@H]1CCCN1C(=O)CNC12CC3CC(CC(O)(C3)C1)C2 [vildagliptin]
- direct vasodilatory effect (induction of vasodilation), ranking [2]: directly followed by alogliptin and vildagliptin
- suppression of superoxide formation [4]: Minor (but significant) suppression
